The results in this text go back to patent publication US20210110884A1 (priority 2019, published 2021).

Assay [1] has as its target T1, E. coli DHFR (Escherichia coli, UniProt P0ABQ4).
T1 sequence (P0ABQ4 1-159): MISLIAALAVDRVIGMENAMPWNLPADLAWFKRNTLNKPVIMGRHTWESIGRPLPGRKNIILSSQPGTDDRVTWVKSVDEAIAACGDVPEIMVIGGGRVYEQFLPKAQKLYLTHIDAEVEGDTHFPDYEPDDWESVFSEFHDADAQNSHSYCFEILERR
In kind it is biochemical.

Assay [2] is classed as biochemical.

Take `CC(C)O` [isopropanol]: in assay [1], the “decrease of hydride transfer by E. coli DHFR” value was found to be 2.2 fold and the “pH independent rate for hydride transfer” value came out at 530±10 s^−1.

B1: BChEG117: butyrylcholinesterase as printed without H; apparently the enzyme lacking the G117H mutation (protein, UniProt P06276 29-602, looked up)
Cholinesterase: EDDIIIATKNGKVRGMNLTVFGGTVTAFLGIPYAQPPLGRLRFKKPQSLTKWSDIWNATKYANSCCQNIDQSFPGFHGSEMWNPNTDLSEDCLYLNVWIPAPKPKNATVLIWIYGGGFQTGTSSLHVYDGKFLARVERVIVVSMNYRVGALGFLALPGNPEAPGNMGLFDQQLALQWVQKNIAAFGGNPKSVTLFGESAGAASVSLHLLSPGSHSLFTRAILQSGSFNAPWAVTSLYEARNRTLNLAKLTGCSRENETEIIKCLRNKDPQEILLNEAFVVPYGTPLSVNFGPTVDGDFLTDMPDILLELGQFKKTQILVGVNKDEGTAFLVYGAPGFSKDNNSIITRKEFQEGLKIFFPGVSEFGKESILFHYTDWVDDQRPENYREALGDVVGDYNFICPALEFTKKFSEWGNNAFFYYFEHRSSKLPWPEWMGVMHGYEIEFVFGLPLERRDNYTKAEEILSRSIVKRWANFAKYGNPNETQNNSTSWPVFKSTEQKYLTLNTESTRIMTKLRAQQCRFWTSFFPKVLEMTGNIDEAEWEWKAGFHRWNNYMMDWKNQFNDYTSKKESCVGL
In the case of B1, the “inhibition by selected OP concentrations” value in assay [2] is on record as over 99%.
